The values below come from patent US10350211B2, “Bumped kinase inhibitor compositions and methods for treating cancer” (UNIVERSITY OF WASHINGTON, priority 2015, dated 2019).

For one data set, the target named is PKD. As to conditions: cited from earlier work.
Data set [1] concerns prostate cancer AR− as well as AR+ lines. As to conditions: cited from earlier work.
The test system of data set [2] is other human kinases beyond PKDs, including mutated Src. The conditions noted are these: cited from earlier work.
The conditions of data set [3]: cited from earlier work.
For data set [4] the following is noted: therapeutic levels cannot be obtained in vivo; cited from earlier work.
The next data set deals with MCF7 cell. Nature of the data set: Breast cancer cell proliferation, MCF7. In kind it is cell-based. As to conditions: 72 hours; tested at 0.2, 2, and 20 μM, concentration of the values not given. As to the method: (§1) MCF7 and MDA231 cell lines were plated at 2000 and 1000 cells/well, respectively. 24 hours later, BKI inhibitor of the disclosure was added to each well at concentrations of 0.2, 2, and 20 μM. After 72 hours, […] was used to measure cell growth.

For another data set, the system named is MDA231 cell. The data set is described as follows: Breast cancer cell proliferation, MDA231. In kind it is cell-based. The conditions noted are these: 72 hours; tested at 0.2, 2, and 20 μM, concentration of the values not given. Here is the method:
as §1

The test system of another data set is PCa tumor. The conditions noted are these: 60 mg/kg, 2× daily; cited from earlier work.

As to `CC(C)(C)n1nc(-c2cccc3ccccc23)c2c(N)ncnc21` [Example 1NA-PP1], the PKD kinase activity entry at PKD is given as “potently blocked”. Further, in data set [1], the “prostate cancer cell growth/proliferation” value is “potently blocked”. For the same molecule, in data set [2], the off-target kinases entry is recorded as “target other human kinases beyond PKDs, including mutated Src”. Also, the solubility result in data set [3] is listed as “low solubility”. In addition, in data set [4], the metabolism entry is on record as “quickly metabolized”.

With `CC(C)(C)n1nc(Cc2cccc3ccccc23)c2c(N)ncnc21` [Example 1NM-PP1], the PKD kinase activity entry at PKD is “potently blocked”. The “prostate cancer cell growth/proliferation” value in data set [1] is “potently blocked”. Further, in data set [2], the off-target kinases result is listed as “target other human kinases beyond PKDs, including mutated Src”. Besides, the solubility entry in data set [3] was “low solubility”. In addition, the metabolism result in data set [4] was “quickly metabolized”.

For `CN1CCC(Cn2nc(-c3ccc4cc(OC5CC5)ccc4c3)c3c(N)ncnc32)CC1` [Example 4, 3-(6-Cyclopropoxynaphthalen-2-yl)-1-((1-methylpiperidin-4-yl)methyl)-1H-pyrazolo[3,4-d]pyrimidin-4-amine], the “MCF7 cell inhibition (%)” value with MCF7 cell worked out at 50%. Besides, in the data set on MDA231 cell, the “MDA231 cell inhibition (%)” value is 60%.

With `CCOc1ccc2cc(-c3nn(CC4CCN(C)CC4)c4ncnc(N)c34)ccc2n1` [Example 15, 3-(2-Ethoxyquinolin-6-yl)-1-((1-methylpiperidin-4-yl)methyl)-1H-pyrazolo[3,4-d]pyrimidin-4-amine], in the data set with MCF7 cell, the “MCF7 cell inhibition (%)” value came to 40%. Moreover, the “MDA231 cell inhibition (%)” value in the data set on MDA231 cell was found to be 30%.

Take `CN1CCC(Cn2nc(-c3ccc4nc(OCC(F)(F)F)ccc4c3)c3c(N)ncnc32)CC1` [Example 16, 1-((1-Methylpiperidin-4-yl)methyl)-3-(2-(2,2,2-trifluoroethoxy)quinolin-6-yl)-1H-pyrazolo[3,4-d]pyrimidin-4-amine]: the “MCF7 cell inhibition (%)” value in the data set on MCF7 cell came out at 50%. In addition, the “MDA231 cell inhibition (%)” value with MDA231 cell is 90%.

On to `CC(C)(O)Cn1nc(-c2ccc3nc(OC4CC4)ccc3c2)c2c(N)ncnc21` [Example 25, 1-(4-Amino-3-(2-cyclopropoxyquinolin-6-yl)-1H-pyrazolo[3,4-d]pyrimidin-1-yl)-2-methylpropan-2-ol], for which, in the data set on MCF7 cell, the “MCF7 cell inhibition (%)” value amounted to 30%. The “MDA231 cell inhibition (%)” value in the data set with MDA231 cell is listed as 20%.

In the case of `CCOc1ccc2ccc(-c3nn(CC4CCNCC4)c4ncnc(N)c34)cc2c1` [Example 51, 3-(7-ethoxynaphthalen-2-yl)-1-(piperidin-4-ylmethyl)-1H-pyrazolo[3,4-d]pyrimidin-4-amine], in the data set with MCF7 cell, the “MCF7 cell inhibition (%)” value was 97%. Besides, the “MDA231 cell inhibition (%)” value with MDA231 cell is recorded as 95%.

Turning to `CC(C)(O)Cn1cc(-c2ccc3nc(OC4CC4)ccc3c2)c2c(N)ncnc21` [Example 58, 1-(4-amino-5-(2-cyclopropoxyquinolin-6-yl)-7H-pyrrolo[2,3-d]pyrimidin-7-yl)-2-methylpropan-2-ol], the “MCF7 cell inhibition (%)” value in the data set on MCF7 cell was 50%. In addition, the “MDA231 cell inhibition (%)” value with MDA231 cell was determined as 10%.

As for `Nc1ncnc2c1c(-c1ccc3nc(OC4CC4)ccc3c1)nn2CC1(CO)COC1` [Example 67, (3-((4-amino-3-(2-cyclopropoxyquinolin-6-yl)-1H-pyrazolo[3,4-d]pyrimidin-1-yl)methyl)oxetan-3-yl)methanol], in the data set on MCF7 cell, the “MCF7 cell inhibition (%)” value is given as 40%. Moreover, the “MDA231 cell inhibition (%)” value in the data set on MDA231 cell was 0%.

Turning to `CCOc1ccc2cc(-c3nn(C4CCN(CC)CC4)c4ncnc(N)c34)ccc2c1` [Example 109, 3-(6-ethoxynaphthalen-2-yl)-1-(1-ethylpiperidin-4-yl)-1H-pyrazolo[3,4-d]pyrimidin-4-amine], the “MCF7 cell inhibition (%)” value in the data set with MCF7 cell was 50%. For the same molecule, the “MDA231 cell inhibition (%)” value in the data set with MDA231 cell stood at 50%.

With `CCOc1ccc2cc(-c3nn(C(C)C)c4ncnc(N)c34)ccc2n1` [Example 110, 3-(2-ethoxyquinolin-6-yl)-1-isopropyl-1H-pyrazolo[3,4-d]pyrimidin-4-amine], in the data set on MCF7 cell, the “MCF7 cell inhibition (%)” value amounted to 30%. In the data set on MDA231 cell, the “MDA231 cell inhibition (%)” value is 10%.

Take `CCOc1ccc2cc(-c3nn(C4CCNCC4)c4ncnc(N)c34)ccc2c1` [Example 111, 3-(6-ethoxynaphthalen-2-yl)-1-(piperidin-4-yl)-1H-pyrazolo[3,4-d]pyrimidin-4-amine]: the “MCF7 cell inhibition (%)” value in the data set with MCF7 cell is on record as 70%. Besides, the “MDA231 cell inhibition (%)” value in the data set with MDA231 cell was determined as 90%.

On to `CCOc1ccc2cc(-c3nc(CC4CCNCC4)n4ccnc(N)c34)ccc2c1` [Example 120, 1-(6-ethoxynaphthalen-2-yl)-3-(piperidin-4-ylmethyl)imidazo[1,5-a]pyrazin-8-amine], for which the “MCF7 cell inhibition (%)” value in the data set with MCF7 cell is recorded as 30%. Further, the “MDA231 cell inhibition (%)” value in the data set on MDA231 cell came to 50%.

For `CCOc1ccc2cc(-c3nn(CC4CCNCC4)c4ncnc(N)c34)ccc2n1` [Example 127, 3-(2-ethoxyquinolin-6-yl)-1-(piperidin-4-ylmethyl)-1H-pyrazolo[3,4-d]pyrimidin-4-amine], the “MCF7 cell inhibition (%)” value in the data set on MCF7 cell is 50%. In addition, the “MDA231 cell inhibition (%)” value in the data set with MDA231 cell was 0%.

For `CCOc1ccc2cc(-c3nn(CC4CCN(C)CC4)c4ncnc(N)c34)ccc2c1` [Example 128], the “MCF7 cell inhibition (%)” value with MCF7 cell turned out to be 40%. Also, the “MDA231 cell inhibition (%)” value in the data set with MDA231 cell was 50%.

For `CCCOc1ccc2cc(-c3nn(CC4CCNCC4)c4ncnc(N)c34)ccc2c1` [Example 129, 1-(piperidin-4-ylmethyl)-3-(6-propoxynaphthalen-2-yl)-1H-pyrazolo[3,4-d]pyrimidin-4-amine], the “MCF7 cell inhibition (%)” value in the data set on MCF7 cell was determined as 75%. In addition, the “MDA231 cell inhibition (%)” value in the data set on MDA231 cell is given as 90%.

On to `CC(C)Oc1ccc2cc(-c3nn(CC4CCNCC4)c4ncnc(N)c34)ccc2c1` [Example 130, 3-(6-isopropoxynaphthalen-2-yl)-1-(piperidin-4-ylmethyl)-1H-pyrazolo[3,4-d]pyrimidin-4-amine], for which the “MCF7 cell inhibition (%)” value in the data set on MCF7 cell is recorded as 30%. Further, the “MDA231 cell inhibition (%)” value in the data set on MDA231 cell is on record as 80%.

With `Fc1ccc(Cl)cc1-c1nc(Nc2ccncc2)c2nccnc2n1` [SD-208], on PKD, the PKD kinase activity result is reported as “potently blocked”. Further, the “prostate cancer cell growth/proliferation” value in data set [1] is on record as “potently blocked”. For the same molecule, the PCa tumor growth entry with PCa tumor is “decrease in PCa tumor growth”.
